Reference: the supplement of paper PMC10307832

How the values were obtained:
Test in all cases: relative viability (nuclei count vs DMSO), 5 days (fraction); higher = more cells survive
NCI-H1792 = tested on: NCI-H1792
Outline: (§1)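 Nuclei were stained with Hoechst during a one-step fixation (final 0.05% Triton X-100, 1% formaldehyde, 1 ug/ml Hoechst) carried out 5 days after dosing, then counted on 4× images. The cells, lung cancer lines in 1536-well plates, had been dosed by pin tool the day after seeding with one drug alone or a fixed anchor-drug dose plus five library-drug doses (not always all listed) in √10 steps. Relative viability is the nuclei count in treated wells divided by that in vehicle wells, and each value is the median of duplicate plates.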

201T = tested on: 201T
Outline: as §1

NCI-H727 = tested on: NCI-H727
Outline: as §1

NCI-H1793 = tested on: NCI-H1793
Outline: as §1

HCC-827 = tested on: HCC-827
Outline: as §1

NCI-H2087 = tested on: NCI-H2087
Outline: as §1

NCI-H1650 = tested on: NCI-H1650
Outline: as §1

NCI-H2228 = tested on: NCI-H2228
Outline: as §1

NCI-H1395 = tested on: NCI-H1395
Outline: as §1

NCI-H3122 = tested on: NCI-H3122
Outline: as §1

NCI-H322M = tested on: NCI-H322M
Outline: as §1

SK-LU-1 = tested on: SK-LU-1
Outline: as §1

NCI-H2405 = tested on: NCI-H2405
Outline: as §1

NCI-H1437 = tested on: NCI-H1437
Outline: as §1

LCLC-103H = tested on: LCLC-103H
Outline: as §1

NCI-H647 = tested on: NCI-H647
Outline: as §1

LCLC-97TM1 = tested on: LCLC-97TM1
Outline: as §1

RERF-LC-KJ = tested on: RERF-LC-KJ
Outline: as §1

BEN = tested on: BEN
Outline: as §1

LXF-289 = tested on: LXF-289
Outline: as §1

CAL-12T = tested on: CAL-12T
Outline: as §1

NCI-H1944 = tested on: NCI-H1944
Outline: as §1

CCN(CC)CCCCNc1ncc2cc(-c3cc(OC)cc(OC)c3)c(NC(=O)NC(C)(C)C)nc2n1 + N=C(N)NC(=N)NCCc1ccccc1 [Phenformin] (partner 250 µM)
relative viability (NCI-H1792; first compound 0.01 µM): 0.363 | relative viability (NCI-H1792; first compound 0.03162 µM): 0.43 | relative viability (NCI-H1792; first compound 0.1 µM): 0.312 | relative viability (NCI-H1792; first compound 0.3162 µM): 0.232 | relative viability (NCI-H1792; first compound 1 µM): 0.168 | relative viability (201T; first compound 0.01 µM): 0.477 | relative viability (201T; first compound 0.03162 µM): 0.479 | relative viability (201T; first compound 0.1 µM): 0.51 | relative viability (201T; first compound 0.3162 µM): 0.47 | relative viability (201T; first compound 1 µM): 0.376 | relative viability (NCI-H727; first compound 0.01 µM): 0.509 | relative viability (NCI-H727; first compound 0.03162 µM): 0.49 | relative viability (NCI-H727; first compound 0.1 µM): 0.547 | relative viability (NCI-H727; first compound 0.3162 µM): 0.728 | relative viability (NCI-H727; first compound 1 µM): 0.632 | relative viability (NCI-H1793; first compound 0.01 µM): 0.416 | relative viability (NCI-H1793; first compound 0.03162 µM): 0.427 | relative viability (NCI-H1793; first compound 0.1 µM): 0.353 | relative viability (NCI-H1793; first compound 0.3162 µM): 0.341 | relative viability (NCI-H1793; first compound 1 µM): 0.335 | relative viability (HCC-827; first compound 0.01 µM): 0.437 | relative viability (HCC-827; first compound 0.03162 µM): 0.422 | relative viability (HCC-827; first compound 0.1 µM): 0.417 | relative viability (HCC-827; first compound 0.3162 µM): 0.467 | relative viability (HCC-827; first compound 1 µM): 0.426 | relative viability (NCI-H2087; first compound 0.01 µM): 0.42 | relative viability (NCI-H2087; first compound 0.03162 µM): 0.537 | relative viability (NCI-H2087; first compound 0.1 µM): 0.536 | relative viability (NCI-H2087; first compound 0.3162 µM): 0.522 | relative viability (NCI-H2087; first compound 1 µM): 0.429 | relative viability (NCI-H1650; first compound 0.01 µM): 0.456 | relative viability (NCI-H1650; first compound 0.03162 µM): 0.416 | relative viability (NCI-H1650; first compound 0.1 µM): 0.503 | relative viability (NCI-H1650; first compound 0.3162 µM): 0.319 | relative viability (NCI-H1650; first compound 1 µM): 0.232 | relative viability (NCI-H2228; first compound 0.01 µM): 0.341 | relative viability (NCI-H2228; first compound 0.03162 µM): 0.336 | relative viability (NCI-H2228; first compound 0.1 µM): 0.384 | relative viability (NCI-H2228; first compound 0.3162 µM): 0.346 | relative viability (NCI-H2228; first compound 1 µM): 0.304 | relative viability (NCI-H1395; first compound 0.01 µM): 0.426 | relative viability (NCI-H1395; first compound 0.03162 µM): 0.455 | relative viability (NCI-H1395; first compound 0.1 µM): 0.451 | relative viability (NCI-H1395; first compound 0.3162 µM): 0.431 | relative viability (NCI-H1395; first compound 1 µM): 0.397 | relative viability (NCI-H3122; first compound 0.01 µM): 0.39 | relative viability (NCI-H3122; first compound 0.03162 µM): 0.362 | relative viability (NCI-H3122; first compound 0.1 µM): 0.633 | relative viability (NCI-H3122; first compound 0.3162 µM): 0.367 | relative viability (NCI-H3122; first compound 1 µM): 0.321 | relative viability (NCI-H322M; first compound 0.01 µM): 0.77 | relative viability (NCI-H322M; first compound 0.03162 µM): 0.779 | relative viability (NCI-H322M; first compound 0.1 µM): 0.791 | relative viability (NCI-H322M; first compound 0.3162 µM): 0.784 | relative viability (NCI-H322M; first compound 1 µM): 0.668 | relative viability (SK-LU-1; first compound 0.01 µM): 0.661 | relative viability (SK-LU-1; first compound 0.03162 µM): 0.551 | relative viability (SK-LU-1; first compound 0.1 µM): 0.681 | relative viability (SK-LU-1; first compound 0.3162 µM): 0.586 | relative viability (SK-LU-1; first compound 1 µM): 0.285 | relative viability (NCI-H2405; first compound 0.01 µM): 0.38 | relative viability (NCI-H2405; first compound 0.03162 µM): 0.412 | relative viability (NCI-H2405; first compound 0.1 µM): 0.518 | relative viability (NCI-H2405; first compound 0.3162 µM): 0.427 | relative viability (NCI-H2405; first compound 1 µM): 0.315 | relative viability (NCI-H1437; first compound 0.01 µM): 0.29 | relative viability (NCI-H1437; first compound 0.03162 µM): 0.298 | relative viability (NCI-H1437; first compound 0.1 µM): 0.28 | relative viability (NCI-H1437; first compound 0.3162 µM): 0.362 | relative viability (NCI-H1437; first compound 1 µM): 0.257 | relative viability (LCLC-103H; first compound 0.01 µM): 0.34 | relative viability (LCLC-103H; first compound 0.03162 µM): 0.335 | relative viability (LCLC-103H; first compound 0.1 µM): 0.37 | relative viability (LCLC-103H; first compound 0.3162 µM): 0.357 | relative viability (LCLC-103H; first compound 1 µM): 0.293 | relative viability (NCI-H647; first compound 0.01 µM): 0.451 | relative viability (NCI-H647; first compound 0.03162 µM): 0.59 | relative viability (NCI-H647; first compound 0.1 µM): 0.556 | relative viability (NCI-H647; first compound 0.3162 µM): 0.804 | relative viability (NCI-H647; first compound 1 µM): 0.239 | relative viability (LCLC-97TM1; first compound 0.01 µM): 0.465 | relative viability (LCLC-97TM1; first compound 0.03162 µM): 0.42 | relative viability (LCLC-97TM1; first compound 0.1 µM): 0.514 | relative viability (LCLC-97TM1; first compound 0.3162 µM): 0.428 | relative viability (LCLC-97TM1; first compound 1 µM): 0.506 | relative viability (RERF-LC-KJ; first compound 0.01 µM): 0.389 | relative viability (RERF-LC-KJ; first compound 0.03162 µM): 0.463 | relative viability (RERF-LC-KJ; first compound 0.1 µM): 0.469 | relative viability (RERF-LC-KJ; first compound 0.3162 µM): 0.471 | relative viability (RERF-LC-KJ; first compound 1 µM): 0.469 | relative viability (BEN; first compound 0.01 µM): 0.261 | relative viability (BEN; first compound 0.03162 µM): 0.236 | relative viability (BEN; first compound 0.1 µM): 0.278 | relative viability (BEN; first compound 0.3162 µM): 0.464 | relative viability (BEN; first compound 1 µM): 0.244 | relative viability (LXF-289; first compound 0.01 µM): 0.506 | relative viability (LXF-289; first compound 0.03162 µM): 0.542 | relative viability (LXF-289; first compound 0.1 µM): 0.547 | relative viability (LXF-289; first compound 0.3162 µM): 0.53 | relative viability (LXF-289; first compound 1 µM): 0.424 | relative viability (CAL-12T; first compound 0.01 µM): 0.595 | relative viability (CAL-12T; first compound 0.03162 µM): 0.582 | relative viability (CAL-12T; first compound 0.1 µM): 0.673 | relative viability (CAL-12T; first compound 0.3162 µM): 0.726 | relative viability (CAL-12T; first compound 1 µM): 0.573 | relative viability (NCI-H1944; first compound 0.01 µM): 0.204 | relative viability (NCI-H1944; first compound 0.03162 µM): 0.195 | relative viability (NCI-H1944; first compound 0.1 µM): 0.194 | relative viability (NCI-H1944; first compound 0.3162 µM): 0.202 | relative viability (NCI-H1944; first compound 1 µM): 0.16
